“Also recorded” adds a separate entry of the source.
What was measured:
Assay type in all cases: cell-based, mouse
DC2.4 cells [1] = test: MHC class I cross-presentation by DC2.4 cells to OT-I CD8+ T cells (IL-2 ELISA)
Source text: Whether knock-down of cellular components involved in ERAD decreases the cross-presentation of exogenous OVA antigen was examined using a system for evaluating the level of antigen presentation, which uses naive CD8^+ T cells from OT-I mice and DC2.4 cells. The DC2.4 cells used as a model of dendritic cells are of the H-2Kb mouse MHC class I haplotype. OT-I (H-2Kb) mice are transgenic mice expressing a T cell receptor (TCRα and β) that recognizes an antigenic peptide (SIINFEKL) (SEQ ID NO: 15) derived from OVA presented on the H-2Kb molecules. The CD8^+ cells of OT-I mice are activated when they recognize OVA peptides presented by BMDCs derived from H-2Kb mice or by DC2.4 cells. When OVA or bOVA is incubated with and affixed onto DC2.4 cells and the cells are further incubated with naive CD8^+ T cells of OT-I mice, the amount of IL-2 produced by OT-I CD8^+ T cells serves as an index of T-cell stimulation as a result of OVA antigen presented by DC2.4 cells.
Parental or knocked-down DC2.4 cells were pre-incubated in a culture medium supplemented with 50 μg mL^−1 polymyxin B for 30 minutes in the presence or absence of lactacystin or MG-132, and incubated with OVA (250 μg mL^−1) or SIINFEKL peptides (10 ng mL^−1) for six hours. The cells were washed, fixed with 1% paraformaldehyde, and aliquoted into microtiter plates (5×10^4 per well). 5×10^4 CD8^+ T cells purified from splenocytes of OT-1 mice using magnetic beads were added to each well and after a 24-hour incubation, the IL-2 secretion was measured by ELISA (BD Biosciences) in triplicate.
DC2.4 cells were incubated with OVA (0, 50, or 250 μg/mL) in RPMI1640/10c% FCS for six hours at 37° C., in the presence or absence of pig-derived HSP90 (10 μg/mL). After washing away the antigen and HSP, OT-I CD8^+ T cells were added, cells were cultured overnight at 37° C., and the amount of IL-2 comprised in the supernatant was measured by the ELISA method.
The timing of the addition of HSP90 (10 μg/mL) and OVA (250 μg/mL) to DC2.4 cells was varied, and the effect on class I antigen presentation was observed. (i) HSP90 was added first, DC2.4 cells were washed, and then OVA was added. (ii) HSP90 and OVA were added simultaneously to DC2.4 cells. (iii) OVA was added first, and after washing DC2.4 cells, HSP90 was added. The results obtained under these three conditions were compared. As a control for all these conditions, an experiment in which only OVA, but not HSP90, was added was also carried out.
Under condition (i), HSP90 was added to DC2.4 cells, the cells were cultured for 30 minutes and then washed to remove HSP90. Next, OVA was added and the cells were cultured for three hours. Thereafter, OVA was removed by washing, and cells were cultured in just the culture medium for three hours. DC2.4 cells activated with OVA by the above procedure were plated in a 96-well plate, OT-I mouse-derived CD8^+ T cells were added to this, and after culturing overnight, the amount of IL-2 released into the supernatant was measured by ELISA.
Under condition (ii), OVA and HSP90 were added simultaneously to DC2.4 cells, cells were cultured for three hours, then washed, and cultured in just the culture medium for three hours. Thereafter, the procedures to investigate the activation of OT-I mouse-derived CD8^+ T cells was carried out similarly to in (i) above.
Under condition (iii), OVA was first added to DC2.4 cells, cells were cultured for three hours, and then washed to remove OVA. Next, HSP90 was added, and the cells were cultured for another three hours. The procedures that follow were carried out similarly to that of (i) and (ii). Meanwhile, timings were set such that the incubation times during the stage in which cells are in contact with OVA and the stage at which OVA has been taken up were the same under conditions (i) to (iii).

[2] = system: bone marrow-derived dendritic cells (BMDCs); test: MHC class II antigen presentation by BMDCs to OT-II CD4+ T cells (IL-2 ELISA); settings: HSP90 10 μg/mL added at the same time as OVA (0, 50 or 250 μg/mL)
Method: Mouse bone marrow-derived dendritic cells (BMDCs) were prepared as follows: cells were taken out from mouse bone marrow and cultured for five days in RPMI medium containing GM-CSF and 5% FCS, during which the medium was partially exchange. This culturing method leads to growth of macrophages, dendritic cells, and such; therefore, dendritic cells alone were collected using CD11c magnetic beads, and these cells were used as bone marrow-derived dendritic cells (BMDCs).
The bone marrow-derived dendritic cells (BMDCs) prepared as above or the mouse dendritic cell line DC2.4 cells were plated in a 96-well plate at 5×10^4 cells per well. Next, in the presence of 50 μg/mL of polynyxin B, which is an endotoxin inhibitor, OVA (0, 50, or 250 μg/mL)and HSP90 (0 or 10 μg/mL) were added, the total fluid volume was adjusted to 200 μL, and this was cultured overnight at 37° C. Since endotoxin is known to activate DCs, polymyxin B was added to eliminate the effects of its contamination of reagents, equipment, and such. After culturing, the aforementioned cells in the wells were washed twice to remove the remaining OVA and HSP90 that were not taken up by the cells. […] The wells were centrifuged, the supernatant was collected, and the amount of IL-2 in the supernatant was measured by ELISA.

DC2.4 cells [3] = test: Polyubiquitination of antigenic protein taken up by DC2.4 cells (SDS-PAGE, Western blot with anti-polyubiquitin antibody); settings: DC2.4 cells incubated with GST-OVA in the presence or absence of Hsp90
Method: There are reports that when the KDEL sequence (Lys-Asp-Glu-Leu) (SEQ ID NO: 3), an endoplasmic reticulum localization sequence, is added to the carboxyl terminus of a protein localized in the ER lumen, the protein is repeatedly transported between the ER and Golgi apparatus, and ERAD of that protein is promoted. Therefore, DC2.4 cells were made to take up OVA with KDEL (SEQ ID NO: 3) added to its C-terminus, and OVA that was polyubiquitinated after uptake was observed by SDS-PAGE and Western blotting. OVA to which a KDEL sequence (SEQ ID NO: 3) was added was constructed and expressed as follows: using a plasmid comprising a DNA sequence encoding OVA as a template, PCR was performed using oligo-1 (SEQ ID NO: 10) and oligo-2 (SEQ ID NO: 11) as primers. The amplified PCR product of approximately 1100 bp was introduced into a pCR-Blunt vector (Invitrogen) to obtain vector-1. Oligo-3 (SEQ ID NO: 12) and oligo-4 (SEQ ID NO: 13) were annealed, and the obtained gene fragment of approximately 100 bp was introduced into the pCR-Blunt vector to obtain vector-2. Vector-2 was digested with SpeI, the obtained gene fragment of approximately 130 bp was introduced into vector-1 that had been digested with NheI to obtain vector-3. An approximately 1250-bp gene fragment (OVA-KDEL) obtained when vector-3 was digested with BamHI/SpeI was introduced into a vector for gene expression, and then expressed. […]

DC2.4 cells [4] = test: Uptake of antigenic protein into DC2.4 cells
Method: Next, DC2.4 cells were incubated for a set amount of time with OVA in the presence or absence of lactacystin (LC), and OVA taken up into the cells was measured. OVA taken up into cells in the presence or absence of Hsp90 was measured similarly.

BMDCs = test: MHC class I antigen presentation by BMDCs to OT-I CD8+ cells; settings: BMDCs incubated with OVA in the presence or absence of HSP90

“HSP90: pig-derived HSP90, molecular chaperone (heat shock protein) of about 90 kDa; porcine sequence SEQ ID NO: 1” was tested. Which “effect on OVA antigen presentation to OT-I CD8+ T cells (IL-2)” value (DC2.4 cells [1]; DC2.4 cells, OVA 0, 50 or 250 μg/mL, six hours, pig-derived HSP90 10 μg/mL versus OVA alone) did it give?
The value was “a stronger antigen presentation was observed; also recorded: increase antigen presentation”.

What about the “Hsp90 concentration dependence of antigen presentation ability” value (DC2.4 cells [1]; DC2.4 cells, Hsp90 10 μg/mL and 50 μg/mL) of the same substance?
The value was “increased in an Hsp90 concentration-dependent manner; also recorded: antigen-presenting ability increases in a manner dependent on Hsp90 concentration”.

And the “effect on IL-2 production versus OVA-only control” value (DC2.4 cells [1]; condition (i): HSP90 added first, cells washed, then OVA)?
Its value is “cannot be observed unless it is added simultaneously”.

And the “effect on IL-2 production versus OVA-only control” value (DC2.4 cells [1]; condition (ii): HSP90 10 μg/mL and OVA 250 μg/mL added simultaneously to DC2.4 cells)?
The value was “increase in the amount of IL-2 production”.

And the “effect on IL-2 production versus OVA-only control” value (DC2.4 cells [1]; condition (iii): OVA added first, cells washed, then HSP90)?
The value was “not to yield any effect”.

And the “effect on IL-2 production by OT-II CD4+ T cells (MHC class II presentation)” value [2]?
Its value is “not enhanced”.

What about the “effect on polyubiquitination of GST-OVA taken up” value (DC2.4 cells [3]) of the same substance?
The value was “the increase in polyubiquitination in the presence of HSP90 is very pronounced”.

And the “effect on polyubiquitination of GST-OVA taken up” value (DC2.4 cells [3]; listed as Hsp90)?
Its value is “more strongly polyubiquitinated”.

What about the “effect on OVA taken up into cells” value (DC2.4 cells [4]; DC2.4 cells incubated with OVA in the presence or absence of Hsp90 and lactacystin) of the same substance?
Its value is “take up OVA into cells more efficiently; also recorded: uptake of OVA increased”.

And the “effect on amount of GST-OVA taken up” value (DC2.4 cells [4]; FIG. 10 lane 4 versus lane 3, presence or absence of HSP90)?
The value was “the increase in the amount taken up in the presence of HSP90 is not great”.

What about the “effect on OVA antigen presentation to OT-I CD8+ cells” value (BMDCs) of the same substance?
Its value is “increase antigen presentation”.
